# Results as given in patent US20260315436A1, “METHOD OF TREATING DISORDERS WITH SURF1 MALFUNCTION” (Cure Mito Foundation, priority 2023, published 2026).
# How the values were obtained:
# [1] = tested on: shy1Δ knockout mutants; assay: Yeast drug repurposing screen, shy1Δ knockout mutants (haploid/diploid not separated); type: cell-based; settings: FIG. 12, inactive statins; test not named
# From the text: An aim of the present disclosure is to identify SURF1 Leigh Syndrome drug repurposing clinical candidates using a rapid turnaround, multi-species phenotypic screening approach that starts with the development and phenotypic characterization of genetically personalized yeast strains—“patient avatars”—and culminates in a drug repurposing screen, a process previously published for PMM2-CDG in Lao et al., 2019 Feb 7; 9(2):413423. […] Slow growth can be rescued in a pathway-agnostic high-throughput chemical suppressor screen. As in the case of PMM2-CDG, the SURF1 yeast ortholog, gene identifier SHY1, is essential undergrowth conditions that require functional mitochondria, i.e., respiration. The yeast species Yarrowia lipolytica was used for the screen since it is an obligate aerobe (requires oxygen to grow), contains a fully functional electron transport chain, and has already been prototyped in a drug repurposing screen (Perlstein 2020). A 384-well-plate growth-based assay with appropriate positive and negative controls was designed and optimized for a drug repurposing screen (~5,000 compounds). The drug repurposing screen for mitochondrial diseases involving complex IV deficiency is described herein. A general yeast screening method was discussed in Perlstein, Drug repurposing for mitochondrial diseases using a pharmacological model of complex I deficiency in the yeast Yarrowia lipolytica, bioRxiv, (2020), see https://www.biorxiv.org/content/10.1101/2020.01.08.899666v1.
# Yeast cells completely lacking SURF1 are unable to grow in conditions that require their mitochondria to produce energy. Knocking out the SURF1 ortholog in yeast—SHY1—results in loss of the ability of the knockout mutant to grow on a non-fermentable carbon source, e.g., lactate or glycerol, that requires functional mitochondria. A shy1Δ knockout mutant is incapable of growing on YEPG, or yeast media spiked with ethanol and glycerol as the sole non-fermentable carbon sources.
# A unique hit signature was identified using the pilot screen of ~2,500 known drugs. A drug repurposing screen was performed. BY4741 and BY4742 are wildtype haploid controls, BY4743 is the wildtype diploid control. PY14 and PY15 are haploid shy1Δ knockout mutants of each yeast mating type. PY16 is the diploid SHY1/shy1Δ heterozygous mutant, which grows just like BY4743. PY17 is the diploid homozygous shy1Δ knockout mutant. FIG. 20.
# FIG. 22, FIG. 23, FIG. 24A, FIG. 24B. It is thought that the hits act by stabilizing cytochrome c oxidase.
# The discernible red triangles are the hits; the larger the triangles, the more statistically significant the result. […] FIG. 25A and FIG. 25B. Haploid and diploid SURF1 deficient mutants were screened. The positive control is a wildtype (unmutated) yeast strain. […]
# [2] = tested on: GM28010 SURF1 mutant fibroblasts; assay: Seahorse mitochondrial stress test, fibroblast cell line GM28010 (Experiment 2, combinations and single compounds); type: cell-based, human; settings: 48 h
# Description: (§1) In order to evaluate selected compounds' impact on mitochondrial function in patient-derived fibroblasts compared to controls, three seahorse assays were conducted, Exp. 1: Fibroblast cell line GM28010—single compounds; Exp. 2. Fibroblast cell line GM28010—combination of compounds+ Single compounds; and Exp. 3: Fibroblast cell line GM28012—single compounds. Seahorse XF24 Extracellular Flux Analyzers continuously measure oxygen concentration and proton flux in the cell supernatant over time (Wu et al., 2007). The oxygen concentration and proton flux measurements are converted in OCR and ECAR values. This enables a direct quantification of mitochondrial respiration and glycolysis. The aim of the seahorse assays is to evaluate the impact of selected compounds on mitochondrial function in patient-derived fibroblasts compared to controls. Compounds used in the seahorse assays include posacanazole, sertaconazole, glabridin, zinglibroside (ginsenoside Z R1), AM281, cysteamine bitrartate, PF-06447475, losmapimod, telepravir, miltefosine, incyclinide, poziotinib, and methylene blue.
# (§2) • Basal Oxygen Consumption (OCR): This reflects the cellular oxygen usage under basal conditions, encompassing both energy production (ATP turnover) and background oxygen leak from the mitochondria. • Oligomycin Injection: Oligomycin is a compound that inhibits ATP synthase, an enzyme crucial for ATP production within mitochondria. • Oligomycin-resistant Respiration: After oligomycin injection, minimal oxygen consumption persists, representing non-ATP linked oxygen leak from the mitochondria, often termed proton leak. • ATP-linked Respiration: This value is derived by subtracting the oligomycin-resistant respiration from the basal OCR. It signifies the oxygen consumption specifically linked to ATP production through mitochondrial oxidative phosphorylation. • Mitochondrial Bioenergetic Efficiency: This parameter reflects the percentage decrease in oxygen consumption observed after oligomycin injection, indicating the mitochondria's efficiency in utilizing oxygen for ATP generation. • FCCP Injection: FCCP is a chemical that disrupts the link between mitochondrial electron transport and ATP production. • Maximal Respiration: Following FCCP injection, the highest oxygen consumption rate is measured, representing the maximum capacity of the mitochondria to utilize oxygen for respiration. • Spare Respiratory Capacity: This parameter is calculated by subtracting basal respiration from maximal respiration.
# GM28010 is a primary human fibroblast cell line that was obtained from patients with SURF1 Leigh syndrome. It was purchased from the Coriell Cell Repositories (Camden, N.J., repository number GM28010).
# GM00038 is a primary human fibroblast cell line purchased from the Coriell Cell Repositories (Camden, N.J.; repository number GM00038). GM00038 was used as a healthy control.
# (§3) Fibroblasts were grown in glucose according to recommendation. Cells were plated in XF96 plates in culture medium and plated at 10,000 cells/well. The day after plating, cells were treated with compounds. Treatments completed in glucose medium Compounds were tested at for 48 hours. The compounds were incubated at (37 C, 5% CO2) until the day of the experiment.
# The fibroblasts were run at passage numbers: GM28010 SURF1 Fibroblasts P5.
# The Assay Medium was 10 mM glucose or galactose DMEM supplemented with 2 mM glutamine and 1 mM pyruvate. Injection Ports for basal glucose: Port A: 2 μM oligomycin; Port B: 2.5 μM FCCP; Port C: 4 μM FCCP; and Port D: 2 μM rotenone and antimycin A. The Data were normalized to cell number per well after the run. The Hoechst-stained nuclei were counted with a Operetta High-Content Imager.
# [3] = tested on: GM28012 SURF1 fibroblasts; assay: Seahorse mitochondrial stress test, fibroblast cell line GM28012 (Experiment 3, single compounds); type: cell-based, human; settings: 48 h; for ATP-linked respiration / basal respiration: both glucose and galactose
# Description: as §1, §2
# GM28010 primary human fibroblasts obtained from patients with SURF1 Leigh syndrome were purchased from the Coriell Cell Repositories (Camden, N.J.; repository number GM28010).
# GM00038 primary human fibroblasts purchased from the Coriell Cell Repositories (Camden, N.J., repository number GM00038) and were used as a healthy control.
# as §3, with “plating, the” for “plating,”, “with the” for “with”, “The treatments” for “Treatments”, “and galactose medium. The compounds” for “Compounds”, “experiment. The fibroblasts were run at passage numbers: GM28012 SURF1 Fibroblasts P5.” for “experiment.”
# The assay medium was 10 mM glucose or galactose DMEM supplemented with 2 mM glutamine and 1 mM pyruvate. Injection Ports for basal glucose: Port A: 2 μM oligomycin; Port B: 2.5 μM FCCP; Port C: 4 μM FCCP; and Port D: 2 μM rotenone and antimycin A.
# The data were normalized to cell number per well after the run. The Hoechst-stained nuclei were counted with a Operetta High-Content Imager.
# [4] = combinations at 1 μM losmapimod, 10 μM Ginsenoside Z R1, 10 μM PF-06447475, single compounds 1, 5, 10 μM
# [5] = listed as Cysteamine Bitrartate
structure (smiles),measurement,setting,value
CC[C@H](C)C(=O)O[C@H]1C[C@H](O)C=C2C=C[C@H](C)[C@H](CC[C@@H](O)C[C@@H](O)CC(=O)O)[C@H]21 [pravastatin],activity of statins,[1],inactive
CCC(C)(C)C(=O)O[C@H]1C[C@@H](C)C=C2C=C[C@H](C)[C@H](CC[C@@H]3C[C@@H](O)CC(=O)O3)[C@H]21 [simvastatin],activity of statins,[1],inactive
"CN(C)c1ccc2nc3ccc(=[N+](C)C)cc-3sc2c1 [Methylene Blue, methylene blue]",ATP production rate through OXPHOS,[2]; [4],dose-dependent decrease in ATP production through OXPHOS
same,respiration (oxygen consumption rate),[2]; [4],decreased oxygen consumption rates
same,total ATP production rates,[2]; [4],maintain ATP production rates
same,ATP production through glycolysis,"[2]; combinations at 1 μM losmapimod, 10 μM Ginsenoside Z R1, single compounds 1, 5, 10 μM",increase in ATP production through glycolysis
CC[C@H](C)C(=O)O[C@H]1CCC=C2C=C[C@H](C)[C@H](CC[C@@H]3C[C@@H](O)CC(=O)O3)[C@H]21 [mevastatin],activity of statins,[1],inactive
CC[C@H](C)C(=O)O[C@H]1C[C@@H](C)C=C2C=C[C@H](C)[C@H](CC[C@@H]3C[C@@H](O)CC(=O)O3)[C@H]21 [lovastatin],activity of statins,[1],inactive
NCCS [cysteamine bitartrate],respiration (oxygen consumption rate),[2]; [4],did not alter oxygen consumption rates
same,ATP production rate through glycolysis,[2]; higher concentrations,decreased
same,ATP production through OXPHOS,[3],Dose-dependent increase
same,ATP production through glycolysis,[3],decrease ATP production through glycolysis
same,total ATP production rate,[3],Dose-dependent increase
same,ATP-linked respiration,[3],increased basal respiration and ATP-Linked respiration in a dose-dependent manner
same,basal respiration,[3],increased basal respiration and ATP-Linked respiration in a dose-dependent manner
same,ATP-linked respiration,[3]; [5],↑basal respiration and ATP-
same,basal respiration,[3]; [5],↑basal respiration and ATP-
same,glycolysis,[3]; glucose-cultured cells,dose-dependent decrease
same,maximal respiration,[3]; glucose-cultured cells,dose-dependent decrease
same,toxicity,[3]; glucose-cultured cells,some toxicity
same,ATP production through glycolysis,[3]; [5],conditions. ↓ATP production
